Results reported in patent US8299089B2, “Multi-arm polymeric conjugates of 7-ethyl-10-hydroxycamptothecin for treatment of breast, colorectal, pancreatic, ovarian and lung cancers” (priority 2006, dated 2012).

What was measured:
Colo 205 = assay: In vitro cytotoxicity, MTS assay, Colo 205; type: cell-based; details: Table 2; Colo 205, 72 hours; Compound 9 in 7-ethyl-10-hydroxycamptothecin equivalents; average ± SD (n = 3)
Experimental: (§1) In Table 2, the cytotoxicity (μM of each compound that results in an IC50) provides an indication of the in vitro anti-tumor potency of each compound. This study was used to determine the effect of PEGylation of four-arm PEGylated 7-ethyl-10-hydroxycamptothecin conjugates. […] Cells were incubated with drugs for 72 hours at 37° C. Following incubation, MTS dye was added and formation of a colored product (formazan) was measured at 490 nm.

HT29 = assay: In vitro cytotoxicity, MTS assay, HT29; type: cell-based; details: Table 2; HT29, 72 hours; Compound 9 in 7-ethyl-10-hydroxycamptothecin equivalents; average ± SD (n = 3)
Experimental: as §1

A549 = assay: In vitro cytotoxicity, MTS assay, A549; type: cell-based; details: Table 2; A549, 72 hours; Compound 9 in 7-ethyl-10-hydroxycamptothecin equivalents; average ± SD (n = 3)
Experimental: as §1

PANC-1 = assay: In vitro cytotoxicity, MTS assay, PANC-1; type: cell-based; details: Table 2; PANC-1, 72 hours; Compound 9 in 7-ethyl-10-hydroxycamptothecin equivalents; average ± SD (n = 3)
Experimental: as §1

MIA PaCa-2 = assay: In vitro cytotoxicity, MTS assay, MIA PaCa-2; type: cell-based; details: Table 2; MIA PaCa-2, 72 hours; Compound 9 in 7-ethyl-10-hydroxycamptothecin equivalents; no SD = average of two replicates
Experimental: as §1

ASPC-1 = assay: In vitro cytotoxicity, MTS assay, ASPC-1; type: cell-based; details: Table 2; ASPC-1, 72 hours; Compound 9 in 7-ethyl-10-hydroxycamptothecin equivalents; average ± SD (n = 3)
Experimental: as §1

BxPC-3 = assay: In vitro cytotoxicity, MTS assay, BxPC-3; type: cell-based; details: Table 2; BxPC-3, 72 hours; Compound 9 in 7-ethyl-10-hydroxycamptothecin equivalents; average ± SD (n = 3)
Experimental: as §1

OVCAR-3 = assay: In vitro cytotoxicity, MTS assay, OVCAR-3; type: cell-based; details: Table 2; OVCAR-3, 72 hours; Compound 9 in 7-ethyl-10-hydroxycamptothecin equivalents; average ± SD (n = 3)
Experimental: as §1

OV90 = assay: In vitro cytotoxicity, MTS assay, OV90; type: cell-based; details: Table 2; OV90, 72 hours; Compound 9 in 7-ethyl-10-hydroxycamptothecin equivalents; average ± SD (n = 3)
Experimental: as §1

OVCAR-8 = assay: In vitro cytotoxicity, MTS assay, OVCAR-8; type: cell-based; details: Table 2; OVCAR-8, 72 hours; Compound 9 in 7-ethyl-10-hydroxycamptothecin equivalents; average ± SD (n = 3)
Experimental: as §1

A2780 = assay: In vitro cytotoxicity, MTS assay, A2780; type: cell-based; details: Table 2; A2780, 72 hours; Compound 9 in 7-ethyl-10-hydroxycamptothecin equivalents; average ± SD (n = 3)
Experimental: as §1

SK-0V-3 = assay: In vitro cytotoxicity, MTS assay, SK-0V-3; type: cell-based; details: Table 2; SK-0V-3, 72 hours; Compound 9 in 7-ethyl-10-hydroxycamptothecin equivalents; average ± SD (n = 3)
Experimental: as §1

[1] = tested on: human mammary carcinoma (MX-1); assay: Single dose efficacy in MX-1 breast tumor xenograft mouse model; type: in vivo, nude mice; details: day 31; for TGI: 20 mg/kg
Experimental: Following at least one week of acclimation, tumors were established by implanting small tumor fragments from donor mice into a single subcutaneous site, on the left auxiliary flank region of nude mice. The tumor implantation site was observed twice weekly and measured once palpable. The tumor volume for each mouse was determined by measuring two dimensions with calipers and calculated using the formula: tumor volume=(length×width^2). […] Drugs were administered intravenously via the tail vein as a single dose of 20 mg/kg body weight of a mouse. […] Mouse weight and tumor sizes were measured at the beginning of study and on the 31st day after the single dose administration.
The overall growth of tumors was calculated as the mean tumor volume (TV). A percent treatment over control (T/C) was also calculated. The percentage of tumor regression indicates the in vivo activity of each compound.

[2] = tested on: human mammary carcinoma (MX-1); assay: Multiple dose efficacy in MX-1 breast tumor xenograft mouse model; type: in vivo, nude mice; details: i.v. 5 mg/kg/dose (q2d×6), day 31
Experimental: The mice were dosed 5 mg/kg/day […] (every 2 days [q×2d]×6). Mouse weight and tumor sizes were monitored up to the 31st day after the first dose administration and subsequent administrations.

[3] = tested on: human mammary, MX-1 tumors; assay: Efficacy in small and large MX-1 breast tumor xenografted mice; type: in vivo, nude mice
Experimental: The antitumor efficacy of 4armPEG-Gly-(7-ethyl-10-hydroxycamptothecin) was evaluated in nude mice bearing small (about 100 mm^3) or large (about 450 mm^3) established human mammary, MX-1 tumors. The antitumor therapeutic activities were determined in mice both with a single dose or multiple dose regimens.
Four of six mice were cured as of day 54. […] All animals were sacrificed by day 20 due to excessive tumor burden.

[4] = tested on: MiaPaCa-2 pancreatic tumor cells; assay: Efficacy in MiaPaCa-2 pancreatic tumor xenograft mice; type: in vivo
[5] = Stability in saline, aqueous medium and buffer; type: physicochemical; details: effect of pH, FIG. 13
Experimental: PEG-7-ethyl-10-hydroxycamptothecin conjugates show good stability in saline and other aqueous medium for up to 24 hours at room temperature.

[6] = Pharmacokinetics in tumor free Balb/C mice; type: in vivo
Excerpt: Pharmacokinetic analysis was done using non-compartmental analysis (WinNonlin).

Pharmacokinetics in rats = type: in vivo; details: rats, 3, 10 and 30 mg/kg; conjugate
[7] = tested on: panel of cancer cell lines; assay: In vitro cytotoxicity, panel of cancer cell lines (comparisons); type: cell-based
Experimental: as §1
PEG-(7-ethyl-10-hydroxycamptothecin) conjugates containing various amino acids are potent in vitro cytotoxicity against a panel of cancer cell lines as summarized in TABLE 3.

[8] = tested on: HT-29 colorectal tumor cells; assay: Efficacy in HT-29 colorectal tumor xenograft mice

Substance: ^40k4arm-PEG-Gly(20)-(7-ethyl-10-hydroxycamptothecin) [Compound 9]
- IC50 (Colo 205): 1000 ± 600 nM
- IC50 (HT29): 500 ± 300 nM
- IC50 (A549): 2700 ± 400 nM
- IC50 (PANC-1): 670 ± 140 nM
- IC50 (MIA PaCa-2): 90 nM
- IC50 (ASPC-1): 1600 ± 1100 nM
- IC50 (BxPC-3): 240 ± 40 nM
- IC50 (OVCAR-3): 300 ± 200 nM
- IC50 (OV90): 600 ± 700 nM
- IC50 (OVCAR-8): 500 ± 100 nM
- IC50 (A2780): 200 ± 200 nM
- IC50 (SK-0V-3): 900 ± 10 nM
- Mean TV ± SD ([1]; single dose i.v. 20 mg/kg (conjugate as 7-ethyl-10-hydroxycamptothecin equivalent)): 7 ± 9 mm^3
- Chg in TV ± SD ([1]; single dose i.v. 20 mg/kg): −94 ± 10%
- Cures ([1]; single dose i.v. 20 mg/kg): 100%
- F/I ([1]; single dose i.v. 20 mg/kg): 7%
- Median TV ([1]; single dose i.v. 20 mg/kg): 3 mm^3
- Regressions ([1]; single dose i.v. 20 mg/kg): 100%
- Survival ([1]; single dose i.v. 20 mg/kg): 100%
- T/C ([1]; single dose i.v. 20 mg/kg): 0.3%
- TGI ([1]; single dose i.v. 20 mg/kg): 99%
- TGI ([1]; single dose i.v. 20 mg/kg, listed as 4armPEG-Gly-(7-ethyl-10-hydroxycamptothecin)): ~100%
- Chg in TV ± SD [2]: −91 ± 10%
- Cures [2]: 100%
- F/I [2]: 14%
- Mean TV ± SD [2]: 12 ± 18 mm^3
- Median TV [2]: 6.6 mm^3
- Regressions [2]: 100%
- Survival [2]: 100%
- T/C [2]: 0.8%
- TGI [2]: 99%
- effect on body weight ([3]; given at the MTD, for the duration of the treatment): did not significantly decrease the body weight
- TGI ([3]; large tumors (about 450 mm^3), single MTD 30 mg/kg): 96%
- mice cured ([3]; large tumors, multiple doses 10 mg/kg q2d×5, as of day 54): five of six
- TGI ([3]; large tumors, multiple doses at MTD 10 mg/kg q2d×5): 96%
- mice cured ([3]; large tumors, single MTD 30 mg/kg, as of day 54): Four of six
- TGI ([3]; small tumors (about 100 mm^3), multiple doses 20 mg/kg q2d×5, as of day 31): 96%
- TGI ([3]; small tumors (about 100 mm^3), single dose 20 mg/kg): 100%
- TGI ([4]; multiple doses i.v. (10 mg/kg/dose for five days; CPT-11 also 40 mg/kg/dose)): 95%
- TGI ([4]; single dose i.v. (30 mg/kg; CPT-11 also 80 mg/kg)): 71%
- rate of 7-ethyl-10-hydroxycamptothecin release [5]: increases with increased pH
- terminal elimination half-life ([6]; for 7-ethyl-10-hydroxycamptothecin): 18 to 26 h
- terminal elimination half-life ([6]; for the conjugate): 18 to 22 h
- elimination half life (Pharmacokinetics in rats): 12 to 18 h
- in vitro inhibition compared with CPT-11 ([7]; all tested tumor cells): much higher in vitro inhibition
- in vitro inhibition compared with native 7-ethyl-10-hydroxycamptothecin ([7]; tested tumor cells except for HT29): significantly higher in vitro inhibition
- effect on body weight ([8]; during the treatment): did not significantly decrease the body of weight
- therapeutic efficacy ([8]; i.v. 10 mg/kg/dose for five days, days 4-22): significant therapeutic efficacy compared to that of CPT-11
- anti-tumor activity ([8]; single dose i.v. 30 mg/kg, days 4-22): significant anti-tumor activity
